Results on 15 compounds are retold here after paper PMC11233931, “Remodeling tumor‐associated macrophage for anti‐cancer effects by rational design of irreversible inhibition of mitogen‐activated protein kinase‐activated protein kinase 2” (MedComm, 2024).

By IC50 is commonly meant the concentration that gives 50% inhibition. A high value points to lower potency. The term inhibition denotes how much of the control response was suppressed.

Assay [1] concerns the target T1, MK2 (Homo sapiens, UniProt P49137). Nature of the assay: MK2 kinase inhibition assay (ADP-Glo). It counts as biochemical. The conditions noted are these: for IC50: mean ± SD of two independent tests. As to the method: To assess the impact of various compounds on MK2 kinase activity, we utilized the ADP‐Glo Assay Kit (Promega) following the manufacturer's instructions. Luminescence measurements were taken using a SpectraMax Paradigm reader. The inhibition percentage was calculated using the following formula: ((specific signalDMSO control − specific signal inhibitor)/(specific signalDMSO control)) × 100%. The IC50 values were determined employing dose–response curve fitting via Prism (Graph Pad).
(In general: ADP-Glo turns the ADP formed in a reaction into a luminescent signal.)

Assay [2] deals with p38α-MK2 complex. Also noted: method as in PMID 29549113. The following applies: cited from earlier work.
The subject of assay [3] is MK2. Set-up: method as in PMID 12147348, PMID 35691544. The conditions noted are these: cited from earlier work.
Assay [4] deals with p-Hsp27 (Ser82) and p-MK2 (T334) in THP-1 derived macrophages. Briefly: Western blot of MK2 signaling in LPS-stimulated THP-1 derived macrophages. It counts as cell-based, human. The conditions noted are these: 1 h preincubation, LPS 100 ng/mL 30 min. The method, then: (§1) FIGURE 4 Targeting cellular MK2 signaling with irreversible inhibition by compound 11. (A and B) RT‐PCR analysis of IL‐1β, TNF‐α, and IL‐6 expression in Lipopolysaccharides (LPS)‐stimulated THP‐1 (A) and RAW264.7 (B) Cells, with pre‐treatment of compound 11 for 3 h followed by LPS (3 h) stimulation. (C) The inhibitory effects of compound 11 on TNF‐α and IL‐6 production in LPS‐stimulated RAW264.7 macrophages for 24 h, measured by ELISA. (D and E) Compound 11, alongside CC‐99677 and PF‐3644022, suppressed MK2 pathway activation, validated through western blot analysis post‐LPS stimulation. Cells were preincubated with the specified compounds for 1 h prior to LPS stimulation (100 ng/mL, 30 min). (F) Distinguishes the mode of action between compound 11 and CC‐99677. The complex structure of a small molecule and MK2 (3R2Y) with the same parent nucleus as compound 11 is shown in cyans, and the complex structure of a small molecule and MK2 (3FYJ) with the same parent nucleus as CC‐99677 is shown in orange. (G–I) The effect of indicated inhibitor on Hsp27 phosphorylation following inhibitor washout. Cells were pretreated with indicated compounds for 1 h and then washed to remove free compound and incubated for a further indicated time before activation with LPS. In (A–C), LPS (100 ng/mL) served as the stimulation control, while untreated cells were the baseline control. The data represent as mean ± SD from triplicates, with statistical analysis conducted via one‐way analysis of variance (ANOVA) (^## p < 0.01, ^### p < 0.001 vs. stimulation control; ^***p < 0.001 vs. baseline control).
Next, the efficacy of compound 11 in cellular MK2 signaling inhibition was evaluated by examining both p‐MK2 and p‐Hsp27 at Ser82 levels, the latter being a direct downstream substrate of p‐MK2. […] We try to explore this interesting phenomenon by superimposing the complex crystal structure (3FYJ) that harboring the same skeleton as CC‐99677 (Figure 4F). […] In that way, CC‐99677 binding to MK2 kinase after pre‐incubation with cells and after LPS stimulation may cause the difference in the spatial conformation of MK2 kinase domain, which may make p38 cannot properly bind to MK2, resulting in a decrease in the phosphorylation of MK2.
After the treatment outlined in the figure legends, cells were lysed using 1× sodium dodecyl sulfate (SDS) solution. The lysates were then subjected to SDS‐polyacrylamide gel electrophoresis for separation, followed by transferring onto nitrocellulose membranes. […] Protein bands were detected using an enhanced chemiluminescence detection reagent (Thermo Fisher Scientific).

The test system of assay [5] is p-Hsp27. Nature of the assay: Cellular washout assay, p-Hsp27 by western blot. It counts as cell-based. The following applies: 1 h pretreatment, then LPS. The method, then: as §1
Furthermore, to validate the irreversible mechanism of action of compound 11 at the cellular level, we performed a cellular washout assay and assessed p‐Hsp27 levels. The established MK2 irreversible inhibitor CC‐99677 served as positive control, while the reversible ATP‐competitive inhibitor PF‐3644022 was used as negative control. […] In contrast, only 1 h after PF‐3644022 washout, p‐Hsp27 level was totally recovered (Figure 4I).
After the treatment outlined in the figure legends, cells were lysed using 1× sodium dodecyl sulfate (SDS) solution. The lysates were then subjected to SDS‐polyacrylamide gel electrophoresis for separation, followed by transferring onto nitrocellulose membranes. The membranes were incubated with primary antibodies specific to phospho‐MK2, phospho‐Hsp27, MK2, Hsp27, GAPDH, and β‐actin (Cell Signaling Technology), followed by horseradish peroxidase‐conjugated anti‐mouse or anti‐rabbit IgG secondary antibodies. Protein bands were detected using an enhanced chemiluminescence detection reagent (Thermo Fisher Scientific).
(Immunoblotting shows a protein as a band on a membrane.)

In assay [6] the target is T1, MK2. Nature of the assay: Kinase kinetic analysis of irreversible inhibition (Mobility Shift Assay, preincubation then 100-fold dilution). It counts as biochemical. The conditions noted are these: preincubation at 100 times the IC50, monitored continuously. The source says:
To assess its role as an irreversible MK2 kinase inhibitor, we conducted a kinetic study on compound 11. The well‐known reversible ATP‐competitive MK2 inhibitor, PF‐3644022, served as a negative control. […] The kinase‐inhibitor mixture was subsequently diluted by a factor of 100 with a reaction buffer that included both substrate peptide and ATP. Under these circumstances, the activity of MK2 kinase was continuously monitored by assessing the phosphorylated substrate percentage. […] The enzyme activity curve almost overlapped with the curve of background group, which included only the substrate peptide without inhibitors and MK2 kinase.
In the kinase kinetic analysis to elucidate the irreversible inhibition of MK2 by compound 11, a Mobility Shift Assay was conducted. […] The EZ Reader (Caliper Life Sciences, MA) was then used to assess the kinase activity of the mixture, which was monitored continuously for 1 hour.

T1 sequence (P49137 whole entry): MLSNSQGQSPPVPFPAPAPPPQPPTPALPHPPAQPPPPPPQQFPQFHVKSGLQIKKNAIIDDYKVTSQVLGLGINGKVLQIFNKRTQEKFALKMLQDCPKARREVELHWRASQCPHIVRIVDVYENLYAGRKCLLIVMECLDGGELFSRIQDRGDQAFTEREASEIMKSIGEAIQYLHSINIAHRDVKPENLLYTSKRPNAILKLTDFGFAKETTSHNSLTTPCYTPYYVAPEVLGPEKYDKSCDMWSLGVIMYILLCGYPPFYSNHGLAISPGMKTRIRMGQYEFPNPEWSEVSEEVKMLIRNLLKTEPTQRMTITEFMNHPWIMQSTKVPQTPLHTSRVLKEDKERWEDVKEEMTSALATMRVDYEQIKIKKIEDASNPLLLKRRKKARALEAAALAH

Consider `C=CC(=O)Nc1cc(-c2cc(-c3cc4c([nH]3)CCNC4=O)ccn2)ccc1C(F)(F)F` [compound 9], for which, in assay [1], 52.1 ± 0.3 nM corresponded to half-maximal inhibition (IC50).

For the compound `CCC(=O)Nc1cccc(-c2cc(-c3cc4c([nH]3)CCNC4=O)ccn2)c1` [compound 3], in assay [1] (read-out: inhibition of MK2 at 1 μM, 1 μM, inhibitory rate of two independent tests), the inhibition at 1 µM is around 30%.

In the case of `C=CC(=O)Nc1cccc(-c2cc(-c3cc4c([nH]3)CCNC4=O)ccn2)c1` [compound 2], the half-maximal inhibitory concentration (IC50) in assay [1] was determined as 728 nM.

As for `Cc1cnc(-c2ccnc(C(C)(C)O)n2)cc1-n1c(C)cc(OCc2ncc(F)cc2F)c(Cl)c1=O` [ATI-450], the “potency for the p38α-MK2 complex relative to p38α-PRAK or p38α-ATF2” value in assay [2] is on record as “over 700 fold”.

Take `C=CC(=O)Nc1cc(-c2cc(-c3cc4c([nH]3)CCNC4=O)ccn2)cc(C(F)(F)F)c1` [compound 8]: in assay [1], half-maximal inhibition (IC50) was put at 217 ± 4.8 nM.

With `C=CC(=O)Nc1cc(-c2cc(-c3cc4c([nH]3)CCNC4=O)ccn2)cc(N(C)C)c1` [compound 12], the midpoint of inhibition in assay [1], the IC50, lay at 121 ± 26.1 nM.

Take `Nc1ncnc2c1ncn2[C@@H]1O[C@H](COP(=O)(O)OP(=O)(O)OP(=O)(O)O)[C@@H](O)[C@H]1O` [ATP]: the “ATP binding affinity to MK2” value in assay [3] is “approximately 30 µM”.

`C=CC(=O)Nc1cc(-c2cc(-c3cc4c([nH]3)CCNC4=O)ccn2)ccc1N(C)C` [compound 13] gave an IC50 in assay [1] of 113 ± 3.5 nM.

Regarding `C=CC(=O)Nc1cc(OC)cc(-c2cc(-c3cc4c([nH]3)CCNC4=O)ccn2)c1` [compound 4], the IC50 in assay [1] amounted to 452 ± 45.3 nM.

For `C=CC(=O)Nc1cc(C)cc(-c2cc(-c3cc4c([nH]3)CCNC4=O)ccn2)c1` [compound 6], the half-maximal inhibitory concentration (IC50) in assay [1] turned out to be 89.5 ± 15.3 nM.

In the case of `CCOCc1cnc(Cl)nc1Oc1ccc2c(ccc3sc4c(c32)NC[C@@H](C)NC4=O)n1` [CC-99677, reference compound], the “effect on MK2 phosphorylation at T334 site” value in assay [4] was “inhibited”. Besides, the “time after inhibitor washout at which p-Hsp27 level recovered” value in assay [5] was 12 h.

Turning to `Cc1ccc(-c2ccc3c(ccc4sc5c(c43)NC[C@@H](C)NC5=O)n2)cn1` [PF-3644022, reference compound], the half-inhibitory concentration (IC50) in assay [1] stood at 12.3 ± 1.3 nM. Further, the “MK2 kinase activity after 30 min preincubation with inhibitor and 100-fold dilution” value in assay [6] is on record as “recovered gradually”. For the same compound, the “effect on MK2 phosphorylation at T334 site” value in assay [4] was “inhibited”. For the same compound, the “time after inhibitor washout at which p-Hsp27 level recovered” value in assay [5] is 1 h.

Consider `C=CC(=O)Nc1cc(-c2cc(-c3cc4c([nH]3)CCNC4=O)ccn2)ccc1OC` [compound 5], for which the 50% inhibitory concentration (IC50) in assay [1] amounted to 36.9 ± 20.1 nM.

Compound `C=CC(=O)Nc1cc(OC(F)(F)F)cc(-c2cc(-c3cc4c([nH]3)CCNC4=O)ccn2)c1` [compound 10] showed a concentration for half-maximal inhibition (IC50) in assay [1] of 212 ± 8.3 nM.

In assay [1], `C=CC(=O)Nc1cc(-c2cc(-c3cc4c([nH]3)CCNC4=O)ccn2)ccc1C` [compound 7] yielded an IC50 of 285 ± 97.5 nM.
